The values below come from patent publication US20100152197A1, “(4-TERT-BUTYLPIPERAZIN-2-YL)(PIPERAZIN-1-YL)METHANONE-N-CARBOXAMIDE DERIVATIVES” (ASTRAZENECA AB, priority 2008, published 2010).

The experiment deals with T1, CCR2 (Homo sapiens, UniProt P41597).
T1 construct: cell membranes containing 6×10^6cells/ml equivalent; endogenous in cells; host or cells: THP1 cells (membrane fragments)
T1 sequence (P41597 1-360 isoform P41597-2): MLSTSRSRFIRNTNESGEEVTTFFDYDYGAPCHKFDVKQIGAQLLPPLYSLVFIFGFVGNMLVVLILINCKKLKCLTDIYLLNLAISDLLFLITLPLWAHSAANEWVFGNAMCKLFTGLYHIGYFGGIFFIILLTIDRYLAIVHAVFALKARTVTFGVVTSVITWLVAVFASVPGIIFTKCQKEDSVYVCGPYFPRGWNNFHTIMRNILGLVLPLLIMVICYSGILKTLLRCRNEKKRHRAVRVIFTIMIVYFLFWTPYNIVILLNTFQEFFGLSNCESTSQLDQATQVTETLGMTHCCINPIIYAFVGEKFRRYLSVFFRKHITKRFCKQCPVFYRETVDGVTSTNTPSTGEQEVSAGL
Put plainly: hMCP-1 THP1 receptor-binding assay (125I-labeled MCP-1, SPA, THP1 cell membranes). The following applies: 250 pM 125I-labeled MCP-1, THP1 cell membranes, room temperature 16 hours; read-out: CCR2 Binding pIC50 (converted). As to the method:
hMCP-1 THP1 Receptor-Binding Assay
i) Preparation of Membrane Fragments
THP1 cells were grown in RPMI (Sigma) supplemented with 10% foetal calf serum, 2 mM glutamine (Gibco), 100 units/ml Penicillin and 100 μg/ml Streptomycin (Invitrogen). Membrane fragments were prepared using cell lysis/differential centrifugation methods as described previously (Siciliano et al., 1990, J. Biol. Chem., 265, 19658). Protein concentration was estimated by BCA protein assay (Pierce, Rockford, Ill.) according to the manufacturer's instructions.
^125I-labeled MCP-1 was prepared using Bolton and Hunter conjugation (Bolton et al., 1973, Biochem. J., 133, 529; Amersham International plc).
Test compounds were dissolved in DMSO and further diluted in assay buffer (50 mM HEPES, 1 mM CaCl2, 5 mM MgCl2, 1 mM EDTA, 0.03% BSA, pH 7.2) to give a range of concentrations starting with a top final concentration of up to 10 μM. […] Incubations contained 250 pM ^125I-labeled MCP-1 (GE Healthcare), 0.5 mg Scintillation proximity assay beads (GE Healthcare RPNQ001) and cell membranes containing 6×10^6cells/ml equivalent. Non-specific binding was determined by the inclusion of 10 μM of a known CCR2b antagonist in the place of test compound. Total binding was determined in the presence of 1% DMSO without compound. Incubations were performed in sealed optiplates and kept at room temperature for 16 hours after which the plates were counted on a Packard TopCount (Packard TopCount™). Dose-response curves were generated using “in-house” data analysis package incorporating Origin software to determine IC50 values. Percent inhibitions were calculated for single concentrations of compound by using the following formula 100−((compound binding minus non-specific binding)/(total binding minus non-specific binding)×100).

Where only a bound is given, the exact number is not on record here.

Regarding `CC(C)(C)N1CCN[C@@H](C(=O)N2CCN(C(=O)Nc3ccc(C#N)c(C(F)(F)F)c3)CC2)C1` [Example 8, 4-[(2R)-4-tert-butylpiperazine-2-carbonyl]-N-[4-cyano-3-(trifluoromethyl)phenyl]piperazine-1-carboxamide], the IC50 is 7.24 nM.

As for `CC(C)(C)N1CCN[C@@H](C(=O)N2CCN(C(=O)Nc3ccc(F)c(C(F)(F)F)c3)CC2)C1` [Example 5, 4-[(2R)-4-tert-butylpiperazine-2-carbonyl]-N-[4-fluoro-3(trifluoromethyl)phenyl]piperazine-1-carboxamide], the IC50 is 2 nM.

Turning to `CC(C)(C)N1CCN[C@@H](C(=O)N2CCN(C(=O)Nc3nc(C(F)(F)F)c(Cl)s3)CC2)C1` [Example 17, 4-[(2R)-4-tert-butylpiperazine-2-carbonyl]-N-[5-chloro-4-(trifluoromethyl)-1,3-thiazol-2-yl]piperazine-1-carboxamide], the IC50 was < 0.447 nM.

On to `CC(C)(C)N1CCN[C@@H](C(=O)N2CCN(C(=O)Nc3cccc(OC(F)(F)C(F)F)c3)CC2)C1` [Example 10, 4-[(2R)-4-tert-butylpiperazine-2-carbonyl]-N-[3-(1,1,2,2-tetrafluoroethoxy)phenyl]piperazine-1-carboxamide], for which the IC50 was 6.76 nM.

As to `CC(C)(C)N1CCN[C@@H](C(=O)N2CCN(C(=O)Nc3ccc(OC(F)(F)F)c(Cl)c3)CC2)C1` [Example 13, 4-[(2R)-4-tert-butylpiperazine-2-carbonyl]-N-[3-chloro-4-(trifluoromethoxy)phenyl]piperazine-1-carboxamide], the IC50 is < 0.871 nM.

As to `CCc1nc(NC(=O)N2CCN(C(=O)[C@H]3CN(C(C)(C)C)CCN3)CC2)sc1Cl` [Example 15, 4-[(2R)-4-tert-butylpiperazine-2-carbonyl]-N-(5-chloro-4-ethyl-1,3-thiazol-2-yl)piperazine-1-carboxamide], the IC50 is < 0.447 nM.

Regarding `CC(C)(C)N1CCN[C@@H](C(=O)N2CCN(C(=O)Nc3ccc(Cl)c(F)c3)CC2)C1` [Example 9, 4-[(2R)-4-tert-butylpiperazine-2-carbonyl]-N-(4-chloro-3-fluorophenyl)piperazine-1-carboxamide], the IC50 was 2.57 nM.

On to `Cc1cc(NC(=O)N2CCN(C(=O)[C@H]3CN(C(C)(C)C)CCN3)CC2)ccc1Cl` [Example 11, 4-[(2R)-4-tert-butylpiperazine-2-carbonyl]-N-(4-chloro-3-methylphenyl)piperazine-1-carboxamide], for which the IC50 was 2.29 nM.

Regarding `CC(C)(C)N1CCN[C@@H](C(=O)N2CCN(C(=O)Nc3cccc(SC(F)(F)F)c3)CC2)C1` [Example 3, 4-[(2R)-4-tert-butylpiperazine-2-carbonyl]-N-[3-(trifluoromethylsulfanyl)phenyl]piperazine-1-carboxamide], the IC50 was 2.82 nM.

Regarding `CC(C)(C)N1CCN[C@@H](C(=O)N2CCN(C(=O)Nc3cccc(C(F)(F)F)c3)CC2)C1` [Example 1, 4-[(2R)-4-tert-butylpiperazine-2-carbonyl]-N[3(trifluoromethyl)phenyl]piperazine-1-carboxamide], the IC50 is 3.09 nM.

Regarding `CC(C)(C)N1CCN[C@@H](C(=O)N2CCN(C(=O)Nc3cccc(OCc4ccccc4)c3)CC2)C1` [Example 12, 4-[(2R)-4-tert-butylpiperazine-2-carbonyl]-N-(3-phenylmethoxyphenyl)piperazine-1-carboxamide], the IC50 is 1.82 nM.

As to `CC(C)(C)N1CCN[C@@H](C(=O)N2CCN(C(=O)Nc3ccc(Br)cc3)CC2)C1` [Example 4, N-(4-bromophenyl)-4-[(2R)-4-tert-butylpiperazine-2-carbonyl]piperazine-1-carboxamide], the IC50 is 6.76 nM.

On to `Cc1nc(NC(=O)N2CCN(C(=O)[C@H]3CN(C(C)(C)C)CCN3)CC2)sc1Cl` [Example 16, 4-[(2R)-4-tert-butylpiperazine-2-carbonyl]-N-(5-chloro-4-methyl-1,3-thiazol-2-yl)piperazine-1-carboxamide], for which the IC50 was 1.26 nM.

`CC(C)(C)N1CCN[C@@H](C(=O)N2CCN(C(=O)Nc3ccc(F)c(Cl)c3)CC2)C1` [Example 7, 4-[(2R)-4-tert-butylpiperazine-2-carbonyl]-N-(3-chloro-4-fluorophenyl)piperazine-1-carboxamide]: the IC50 is 8.51 nM.

`CC(C)(C)N1CCN[C@@H](C(=O)N2CCN(C(=O)Nc3cccc(Cl)c3)CC2)C1` [Example 2, 4-[(2R)-4-tert-butylpiperazine-2-carbonyl]-N-(3-chlorophenyl)piperazine-1-carboxamide]: the IC50 was 2.57 nM.

In the case of `Cc1nc(NC(=O)N2CCN(C(=O)[C@H]3CN(C(C)(C)C)CCN3)CC2)sc1Br` [Example 14, N-(5-bromo-4-methyl-1,3-thiazol-2-yl)-4-[(2R)-4-tert-butylpiperazine-2-carbonyl]piperazine-1-carboxamide], the IC50 is 2.75 nM.

Regarding `Cc1ccc(NC(=O)N2CCN(C(=O)[C@H]3CN(C(C)(C)C)CCN3)CC2)cc1C(F)(F)F` [Example 6, 4-[(2R)-4-tert-butylpiperazine-2-carbonyl]-N-[4-methyl-3-(trifluoromethyl)phenyl]piperazine-1-carboxamide], the IC50 is 1.82 nM.
